# Source: patent US10238670B2, “9-aminomethyl minocycline compounds and methods of use thereof in urinary tract infection (UTI) treatment” (Paratek Pharmaceuticals, Inc., priority 2016, dated 2019)
# Read-outs that look alike come from different tables or passages of the source.
# Assay: Phase 1b study in female adults with cystitis, urine PK
# Type: in vivo, human
# Settings: for Ae0-24 (amount excreted in urine): mean; for clearance: female, human, urine and plasma
# Method: Urine was collected, the volume recorded, and analyzed for Compound 1 concentration at the following times: • Day 1 to 2: pooled total urine 0 to 4, 4 to 8, 8 to 12, and 12-24 hours after the t=0 h dose; Collection of the 12 to 24 h sample should be completed prior to the t=24 h dose on Day 2; • Day 5 to 6: pooled total urine 0 to 4, 4 to 8, 8 to 12, and 12-24 hours after the t=96 h dose;
# Urine was pooled during the intervals above. At the end of each interval, the time and total volume were recorded.
# Compound 1 urine concentration data was used to determine the amount excreted in a dosing interval, the urinary excretion rate, and, in conjunction with the plasma concentration data, to estimate the renal clearance (CLr) of Compound 1.
# Urine was collected and the volume recorded at the following times: • Day 1 to 2: pooled total urine 0 to 4, 4 to 8, 8 to 12, and 12-24 hours after the t=0 h dose; • Day 5 to 6: pooled total urine 0 to 4, 4 to 8, 8 to 12, and 12-24 hours after the t=96 h dose;
# At the end of each collection time period the pooled urine was frozen at −20° C. or colder and the total volume of urine collected for the time period was recorded. The samples were kept frozen at −20° C. or colder pending shipment to the bioanalytical laboratory.
# The urine sample volume, its Compound 1 concentration, the amount of Compound 1 excreted in the urine (product of volume and concentration) over a dosing interval, the urinary excretion rates and renal clearance (CLr) of Compound 1 following the initial Day 1 and final Day 5 doses were summarized by the treatment groups.
# [1] = Day 1, 0-4 hour Post t = 0, IV_PO300
# [2] = Day 1, 0-4 hour Post t = 0, PO300
# [3] = Day 1, 0-4 hour Post t = 0, PO450
# [4] = Day 1, 4-8 hour Post t = 0, IV_PO300
# [5] = Day 1, 4-8 hour Post t = 0, PO300
# [6] = Day 1, 4-8 hour Post t = 0, PO450
# [7] = Day 1, 8-12 hour Post t = 0, IV_PO300
# [8] = Day 1, 8-12 hour Post t = 0, PO300
# [9] = Day 1, 8-12 hour Post t = 0, PO450
# [10] = Day 1-2, 12-24 hour Post t = 0, IV_PO300
# [11] = Day 1-2, 12-24 hour Post t = 0, PO300
# [12] = Day 1-2, 12-24 hour Post t = 0, PO450
# [13] = Day 1, 200 mg IV, 300 mg po (n = 11)
# [14] = Day 5, 0-4 hour Post t = 96, IV_PO300
# [15] = Day 5, 0-4 hour Post t = 96, PO300
# [16] = Day 5, 0-4 hour Post t = 96, PO450
# [17] = Day 5, 4-8 hour Post t = 96, IV_PO300
# [18] = Day 5, 4-8 hour Post t = 96, PO300
# [19] = Day 5, 4-8 hour Post t = 96, PO450
# [20] = Day 5, 8-12 hour Post t = 96, IV_PO300
# [21] = Day 5, 8-12 hour Post t = 96, PO300
# [22] = Day 5, 8-12 hour Post t = 96, PO450
# [23] = Day 5-6, 12-24 hour Post t = 96, IV_PO300
# [24] = Day 5-6, 12-24 hour Post t = 96, PO300
# [25] = Day 5-6, 12-24 hour Post t = 96, PO450
# [26] = Day 5, 200 mg IV, 300 mg po (n = 11)
smiles,measurement,setting,value
"CN(C)c1cc(CNCC(C)(C)C)c(O)c2c1C[C@H]1C[C@H]3[C@H](N(C)C)C(O)=C(C(N)=O)C(=O)[C@@]3(O)C(O)=C1C2=O [Compound 1, 9-[(2,2-dimethyl-propylamino)-methyl]-minocycline]","Urine Concentration, Mean",[1],65360.0 ng/mL
same,"Urine Concentration, Median",[1],55000.0 ng/mL
same,"Urine Concentration, Mean",[2],14003.0 ng/mL
same,"Urine Concentration, Median",[2],14020.0 ng/mL
same,"Urine Concentration, Mean",[3],23008.0 ng/mL
same,"Urine Concentration, Median",[3],10500.0 ng/mL
same,"Urine Concentration, Mean",[4],43548.2 ng/mL
same,"Urine Concentration, Median",[4],40900.0 ng/mL
same,"Urine Concentration, Mean",[5],19088.9 ng/mL
same,"Urine Concentration, Median",[5],16800.0 ng/mL
same,"Urine Concentration, Mean",[6],20537.8 ng/mL
same,"Urine Concentration, Median",[6],15500.0 ng/mL
same,"Urine Concentration, Mean",[7],32407.3 ng/mL
same,"Urine Concentration, Median",[7],33700.0 ng/mL
same,"Urine Concentration, Mean",[8],19981.0 ng/mL
same,"Urine Concentration, Median",[8],13650.0 ng/mL
same,"Urine Concentration, Mean",[9],11699.0 ng/mL
same,"Urine Concentration, Median",[9],8995.0 ng/mL
same,"Urine Concentration, Mean",[10],22410.0 ng/mL
same,"Urine Concentration, Median",[10],19300.0 ng/mL
same,"Urine Concentration, Mean",[11],20772.0 ng/mL
same,"Urine Concentration, Median",[11],21300.0 ng/mL
same,"Urine Concentration, Mean",[12],25713.0 ng/mL
same,"Urine Concentration, Median",[12],19550.0 ng/mL
same,fe0-24 [dose absorbed],[13],20.4%
same,fe0-24 [dose administered],[13],20.4%
same,Ae0-24 (amount excreted in urine),"Day 1, 200 mg IV, 300 mg po (n = 11), total dose 200 IV",40.70 mg
same,fe0-24 [dose absorbed],"Day 1, 300 mg po (n = 10)",18.7%
same,fe0-24 [dose administered],"Day 1, 300 mg po (n = 10)",6.5%
same,Ae0-24 (amount excreted in urine),"Day 1, 300 mg po (n = 10), total dose 600 po",39.24 mg
same,fe0-24 [dose absorbed],"Day 1, 450 mg po (n = 10)",11.4%
same,fe0-24 [dose administered],"Day 1, 450 mg po (n = 10)",4.0%
same,Ae0-24 (amount excreted in urine),"Day 1, 450 mg po (n = 10), total dose 900 po",35.95 mg
same,"Urine Concentration, Mean",[14],42710.0 ng/mL
same,"Urine Concentration, Median",[14],26250.0 ng/mL
same,"Urine Concentration, Mean",[15],30900.0 ng/mL
same,"Urine Concentration, Median",[15],26850.0 ng/mL
same,"Urine Concentration, Mean",[16],35988.9 ng/mL
same,"Urine Concentration, Median",[16],25700.0 ng/mL
same,"Urine Concentration, Mean",[17],26090.0 ng/mL
same,"Urine Concentration, Median",[17],28500.0 ng/mL
same,"Urine Concentration, Mean",[18],29111.1 ng/mL
same,"Urine Concentration, Median",[18],18200.0 ng/mL
same,"Urine Concentration, Mean",[19],48117.0 ng/mL
same,"Urine Concentration, Median",[19],33700.0 ng/mL
same,"Urine Concentration, Mean",[20],33237.0 ng/mL
same,"Urine Concentration, Median",[20],14850.0 ng/mL
same,"Urine Concentration, Mean",[21],25350.0 ng/mL
same,"Urine Concentration, Median",[21],19600.0 ng/mL
same,"Urine Concentration, Mean",[22],30466.0 ng/mL
same,"Urine Concentration, Median",[22],20600.0 ng/mL
same,"Urine Concentration, Mean",[23],21480.0 ng/mL
same,"Urine Concentration, Median",[23],12590.0 ng/mL
same,"Urine Concentration, Mean",[24],17940.0 ng/mL
same,"Urine Concentration, Median",[24],16000.0 ng/mL
same,"Urine Concentration, Mean",[25],30280.0 ng/mL
same,"Urine Concentration, Median",[25],23400.0 ng/mL
same,fe0-24 [dose absorbed],[26],30.7%
same,fe0-24 [dose administered],[26],10.8%
same,Ae0-24 (amount excreted in urine),"Day 5, 200 mg IV, 300 mg po (n = 11), total dose 300 po",32.27 mg
same,fe0-24 [dose absorbed],"Day 5, 300 mg po (n = 10)",36.4%
same,fe0-24 [dose administered],"Day 5, 300 mg po (n = 10)",12.7%
same,Ae0-24 (amount excreted in urine),"Day 5, 300 mg po (n = 10), total dose 300 po",38.21 mg
same,fe0-24 [dose absorbed],"Day 5, 450 mg po (n = 10)",34.8%
same,fe0-24 [dose administered],"Day 5, 450 mg po (n = 10)",12.2%
same,Ae0-24 (amount excreted in urine),"Day 5, 450 mg po (n = 10), total dose 450 po",54.87 mg
same,clearance,"intravenous, 200 mg, Day 1, IV_PO300, read-out: Renal CL, Geo. Mean (converted)",33 mL/min
same,clearance,"intravenous, 200 mg, Day 1, IV_PO300, read-out: Renal CL, Mean (converted)",38.3 mL/min
same,clearance,"intravenous, 200 mg, Day 1, IV_PO300, read-out: Renal CL, Median (converted)",27.2 mL/min
same,clearance,"oral, 300 mg, Day 5, IV_PO300, read-out: Renal CL, Geo. Mean (converted)",63 mL/min
same,clearance,"oral, 300 mg, Day 5, IV_PO300, read-out: Renal CL, Mean (converted)",94.6 mL/min
same,clearance,"oral, 300 mg, Day 5, IV_PO300, read-out: Renal CL, Median (converted)",44 mL/min
same,clearance,"oral, 300 mg, Day 5, PO300, read-out: Renal CL, Geo. Mean (converted)",57.4 mL/min
same,clearance,"oral, 300 mg, Day 5, PO300, read-out: Renal CL, Mean (converted)",78.2 mL/min
same,clearance,"oral, 300 mg, Day 5, PO300, read-out: Renal CL, Median (converted)",58.6 mL/min
same,clearance,"oral, 450 mg, Day 5, PO450, read-out: Renal CL, Geo. Mean (converted)",21.5 mL/min
same,clearance,"oral, 450 mg, Day 5, PO450, read-out: Renal CL, Mean (converted)",29.1 mL/min
same,clearance,"oral, 450 mg, Day 5, PO450, read-out: Renal CL, Median (converted)",27.8 mL/min
same,"Ae 0-4 hrs, Geo. Mean","urine, Day 1, IV_PO300",11.59 mg
same,"Ae 0-4 hrs, Mean","urine, Day 1, IV_PO300",13.80 mg
same,"Ae 0-4 hrs, Median","urine, Day 1, IV_PO300",9.74 mg
same,"Ae 0-24 hrs, Geo. Mean","urine, Day 1, IV_PO300",36.98 mg
same,"Ae 0-24 hrs, Median","urine, Day 1, IV_PO300",41.40 mg
same,"Ae 4-8 hrs, Geo. Mean","urine, Day 1, IV_PO300",7.28 mg
same,"Ae 4-8 hrs, Mean","urine, Day 1, IV_PO300",8.61 mg
same,"Ae 4-8 hrs, Median","urine, Day 1, IV_PO300",7.96 mg
same,"Ae 8-12 hrs, Geo. Mean","urine, Day 1, IV_PO300",5.53 mg
same,"Ae 8-12 hrs, Mean","urine, Day 1, IV_PO300",6.80 mg
same,"Ae 8-12 hrs, Median","urine, Day 1, IV_PO300",6.17 mg
same,"Ae 12-24 hrs, Geo. Mean","urine, Day 1, IV_PO300",12.70 mg
